According to the NIST ThermoML archive (doi:10.1016/j.jct.2016.03.035):
Where “and” joins values, the source holds several entries; their conditions need not be identical. Equal values may be shown once.

Assay: xn = mol fraction of the nth substance listed
Details: Gas, Buoyancy - hydrostatic balance with magnetic suspension - two sinkers

C [methane] + CCC
Details | mass density
248.15 K, 96.6 kPa, x1 = 0.2658 | 1.7468 kg/m3
248.15 K, 120.09 kPa, x1 = 0.5069 | 1.764 kg/m3 and 1.7641 kg/m3 and 1.7642 kg/m3
248.15 K, 141.7 kPa, x1 = 0.2658 | 2.5863 kg/m3 and 2.5861 kg/m3 and 2.5862 kg/m3
248.15 K, 183.4 kPa, x1 = 0.5069 | 2.7166 kg/m3 and 2.7162 kg/m3 and 2.7167 kg/m3
248.15 K, 184.56 kPa, x1 = 0.2658 | 3.3989 kg/m3 and 3.3987 kg/m3
248.15 K, 220.8 kPa, x1 = 0.2658 | 4.0983 kg/m3 and 4.0981 kg/m3 and 4.0981 kg/m3
248.15 K, 244.4 kPa, x1 = 0.5069 | 3.6494 kg/m3 and 3.6497 kg/m3 and 3.6499 kg/m3
248.15 K, 251.13 kPa, x1 = 0.2658 | 4.6927 kg/m3 and 4.6924 kg/m3 and 4.6926 kg/m3
248.15 K, 271.98 kPa, x1 = 0.2658 | 5.1061 kg/m3
248.15 K, 271.99 kPa, x1 = 0.2658 | 5.1059 kg/m3
248.15 K, 275.99 kPa, x1 = 0.2658 | 5.186 kg/m3 and 5.1858 kg/m3 and 5.1858 kg/m3
248.15 K, 303.31 kPa, x1 = 0.5069 | 4.5661 kg/m3 and 4.566 kg/m3 and 4.5662 kg/m3
248.15 K, 360.5 kPa, x1 = 0.5069 | 5.4703 kg/m3 and 5.4702 kg/m3 and 5.4702 kg/m3
248.15 K, 424.87 kPa, x1 = 0.5069 | 6.5058 kg/m3 and 6.5052 kg/m3 and 6.5054 kg/m3
248.16 K, 96.6 kPa, x1 = 0.2658 | 1.7471 kg/m3 and 1.747 kg/m3
248.16 K, 390.03 kPa, x1 = 0.7498 | 4.4827 kg/m3
248.16 K, 390.04 kPa, x1 = 0.7498 | 4.4825 kg/m3 and 4.4826 kg/m3
248.16 K, 500.33 kPa, x1 = 0.7498 | 5.7987 kg/m3 and 5.7985 kg/m3 and 5.7986 kg/m3
248.16 K, 580.7 kPa, x1 = 0.7498 | 6.7716 kg/m3 and 6.7717 kg/m3
248.16 K, 685.07 kPa, x1 = 0.7498 | 8.055 kg/m3 and 8.0552 kg/m3
248.16 K, 786.23 kPa, x1 = 0.7498 | 9.3205 kg/m3
248.16 K, 786.24 kPa, x1 = 0.7498 | 9.3204 kg/m3 and 9.3205 kg/m3
248.16 K, 835.59 kPa, x1 = 0.7498 | 9.9462 kg/m3
248.16 K, 835.6 kPa, x1 = 0.7498 | 9.946 kg/m3 and 9.9461 kg/m3
248.16 K, 859.93 kPa, x1 = 0.7498 | 10.2556 kg/m3
248.16 K, 859.95 kPa, x1 = 0.7498 | 10.2561 kg/m3 and 10.2559 kg/m3
248.16 K, 884.03 kPa, x1 = 0.7498 | 10.5636 kg/m3 and 10.5634 kg/m3 and 10.5637 kg/m3
248.17 K, 276.07 kPa, x1 = 0.7498 | 3.1457 kg/m3
248.17 K, 276.08 kPa, x1 = 0.7498 | 3.1457 kg/m3 and 3.1455 kg/m3
273.14 K, 124.74 kPa, x1 = 0.5069 | 1.6598 kg/m3 and 1.6598 kg/m3
273.14 K, 258.4 kPa, x1 = 0.5069 | 3.4826 kg/m3
273.15 K, 124.75 kPa, x1 = 0.5069 | 1.6598 kg/m3
273.15 K, 167.48 kPa, x1 = 0.2658 | 2.7681 kg/m3 and 2.7679 kg/m3
273.15 K, 167.49 kPa, x1 = 0.2658 | 2.7677 kg/m3
273.15 K, 218.01 kPa, x1 = 0.5069 | 2.9256 kg/m3
273.15 K, 218.04 kPa, x1 = 0.5069 | 2.9262 kg/m3
273.15 K, 218.06 kPa, x1 = 0.5069 | 2.9265 kg/m3
273.15 K, 242.18 kPa, x1 = 0.2658 | 4.0482 kg/m3 and 4.0482 kg/m3
273.15 K, 258.4 kPa, x1 = 0.5069 | 3.4831 kg/m3
273.15 K, 258.41 kPa, x1 = 0.5069 | 3.4831 kg/m3
273.15 K, 262.29 kPa, x1 = 0.5069 | 3.5352 kg/m3
273.15 K, 269.26 kPa, x1 = 0.5069 | 3.6315 kg/m3
273.15 K, 277.28 kPa, x1 = 0.5069 | 3.7427 kg/m3
273.15 K, 309 kPa, x1 = 0.5069 | 4.1836 kg/m3
273.15 K, 316.31 kPa, x1 = 0.5069 | 4.2857 kg/m3
273.15 K, 321.34 kPa, x1 = 0.5069 | 4.3577 kg/m3 and 4.3576 kg/m3
273.15 K, 321.35 kPa, x1 = 0.5069 | 4.3574 kg/m3
273.15 K, 323.08 kPa, x1 = 0.5069 | 4.3804 kg/m3
273.15 K, 340.33 kPa, x1 = 0.5069 | 4.6223 kg/m3
273.15 K, 340.34 kPa, x1 = 0.5069 | 4.6226 kg/m3
273.15 K, 340.36 kPa, x1 = 0.5069 | 4.6229 kg/m3
273.15 K, 344.34 kPa, x1 = 0.2658 | 5.85 kg/m3 and 5.8499 kg/m3 and 5.85 kg/m3
273.15 K, 401.7 kPa, x1 = 0.2658 | 6.8907 kg/m3 and 6.8903 kg/m3
273.15 K, 401.71 kPa, x1 = 0.2658 | 6.8904 kg/m3
273.15 K, 402.73 kPa, x1 = 0.5069 | 5.504 kg/m3
273.15 K, 406.4 kPa, x1 = 0.2658 | 6.9763 kg/m3
273.15 K, 406.45 kPa, x1 = 0.2658 | 6.9765 kg/m3 and 6.9764 kg/m3
273.15 K, 409.05 kPa, x1 = 0.5069 | 5.5939 kg/m3
273.15 K, 415.33 kPa, x1 = 0.5069 | 5.6832 kg/m3
273.15 K, 430.79 kPa, x1 = 0.2658 | 7.4249 kg/m3
273.15 K, 430.8 kPa, x1 = 0.2658 | 7.4251 kg/m3
273.15 K, 441.05 kPa, x1 = 0.5069 | 6.0518 kg/m3
273.15 K, 441.3 kPa, x1 = 0.5069 | 6.0554 kg/m3
273.15 K, 441.54 kPa, x1 = 0.5069 | 6.0588 kg/m3
273.15 K, 453.5 kPa, x1 = 0.5069 | 6.23 kg/m3
273.15 K, 453.52 kPa, x1 = 0.5069 | 6.23 kg/m3
273.15 K, 453.54 kPa, x1 = 0.5069 | 6.2304 kg/m3
273.15 K, 486.09 kPa, x1 = 0.2658 | 8.458 kg/m3 and 8.4582 kg/m3
273.15 K, 486.1 kPa, x1 = 0.2658 | 8.4581 kg/m3
273.15 K, 491.06 kPa, x1 = 0.5069 | 6.7718 kg/m3
273.15 K, 491.73 kPa, x1 = 0.2658 | 8.5643 kg/m3 and 8.5641 kg/m3 and 8.564 kg/m3
273.15 K, 497.16 kPa, x1 = 0.5069 | 6.8601 kg/m3
273.15 K, 500.88 kPa, x1 = 0.7498 | 5.2229 kg/m3
273.15 K, 500.89 kPa, x1 = 0.7498 | 5.2229 kg/m3
273.15 K, 503.23 kPa, x1 = 0.5069 | 6.9481 kg/m3
273.15 K, 506.92 kPa, x1 = 0.5069 | 7.0016 kg/m3
273.15 K, 506.93 kPa, x1 = 0.5069 | 7.0019 kg/m3
273.15 K, 506.95 kPa, x1 = 0.5069 | 7.0022 kg/m3
273.15 K, 537.7 kPa, x1 = 0.2658 | 9.4418 kg/m3 and 9.4416 kg/m3
273.15 K, 537.71 kPa, x1 = 0.2658 | 9.4418 kg/m3
273.15 K, 554.75 kPa, x1 = 0.5069 | 7.701 kg/m3
273.15 K, 555.81 kPa, x1 = 0.5069 | 7.717 kg/m3
273.15 K, 556.85 kPa, x1 = 0.5069 | 7.7324 kg/m3
273.15 K, 562.21 kPa, x1 = 0.2658 | 9.9156 kg/m3 and 9.9157 kg/m3
273.15 K, 568.57 kPa, x1 = 0.2658 | 10.0393 kg/m3 and 10.0391 kg/m3
273.15 K, 607.74 kPa, x1 = 0.5069 | 8.4834 kg/m3
273.15 K, 607.75 kPa, x1 = 0.5069 | 8.4836 kg/m3
273.15 K, 607.76 kPa, x1 = 0.5069 | 8.484 kg/m3
273.15 K, 608.84 kPa, x1 = 0.2658 | 10.8308 kg/m3 and 10.8306 kg/m3
273.15 K, 611.36 kPa, x1 = 0.5069 | 8.5381 kg/m3
273.15 K, 612.13 kPa, x1 = 0.5069 | 8.5492 kg/m3
273.15 K, 612.89 kPa, x1 = 0.5069 | 8.5606 kg/m3
273.15 K, 615.59 kPa, x1 = 0.2658 | 10.9646 kg/m3 and 10.9644 kg/m3 and 10.9642 kg/m3
273.15 K, 619.26 kPa, x1 = 0.5069 | 8.6551 kg/m3
273.15 K, 625.49 kPa, x1 = 0.5069 | 8.7476 kg/m3
273.15 K, 631.66 kPa, x1 = 0.5069 | 8.8402 kg/m3
273.15 K, 652.39 kPa, x1 = 0.2658 | 11.7012 kg/m3
273.15 K, 652.4 kPa, x1 = 0.2658 | 11.7011 kg/m3
273.15 K, 659.32 kPa, x1 = 0.2658 | 11.841 kg/m3 and 11.8409 kg/m3 and 11.8406 kg/m3
273.15 K, 699.84 kPa, x1 = 0.5069 | 9.8667 kg/m3
273.15 K, 701.3 kPa, x1 = 0.5069 | 9.889 kg/m3
273.15 K, 701.31 kPa, x1 = 0.5069 | 9.8889 kg/m3
273.15 K, 701.32 kPa, x1 = 0.5069 | 9.8887 kg/m3
273.15 K, 705.89 kPa, x1 = 0.5069 | 9.9581 kg/m3
273.15 K, 711.37 kPa, x1 = 0.5069 | 10.0422 kg/m3
273.15 K, 711.71 kPa, x1 = 0.5069 | 10.0475 kg/m3
273.15 K, 711.89 kPa, x1 = 0.5069 | 10.0504 kg/m3
273.15 K, 712.05 kPa, x1 = 0.5069 | 10.0527 kg/m3
273.15 K, 776.08 kPa, x1 = 0.5069 | 11.034 kg/m3
273.15 K, 781.94 kPa, x1 = 0.5069 | 11.1239 kg/m3
273.15 K, 787.74 kPa, x1 = 0.5069 | 11.2144 kg/m3
273.15 K, 802.95 kPa, x1 = 0.5069 | 11.451 kg/m3
273.15 K, 803.19 kPa, x1 = 0.5069 | 11.4546 kg/m3
273.15 K, 803.43 kPa, x1 = 0.5069 | 11.4585 kg/m3
273.15 K, 829.51 kPa, x1 = 0.5069 | 11.8643 kg/m3
273.15 K, 829.52 kPa, x1 = 0.5069 | 11.8644 kg/m3 and 11.8643 kg/m3
273.15 K, 883.12 kPa, x1 = 0.5069 | 12.7095 kg/m3
273.15 K, 888.99 kPa, x1 = 0.5069 | 12.8025 kg/m3
273.15 K, 894.82 kPa, x1 = 0.5069 | 12.8951 kg/m3
273.15 K, 899.8 kPa, x1 = 0.7498 | 9.5967 kg/m3 and 9.5966 kg/m3
273.15 K, 899.82 kPa, x1 = 0.7498 | 9.5965 kg/m3
273.15 K, 907.75 kPa, x1 = 0.5069 | 13.1005 kg/m3
273.15 K, 907.76 kPa, x1 = 0.5069 | 13.1006 kg/m3
273.15 K, 929.46 kPa, x1 = 0.5069 | 13.4491 kg/m3
273.15 K, 930.26 kPa, x1 = 0.5069 | 13.4619 kg/m3
